{"source": "paper PMC7419507", "about": "“In vitro Cas9-assisted editing of modular polyketide synthase genes to produce desired natural product derivatives” (Nature Communications, 2020)", "type_in_all_cases": "cell-based", "key": {"[1]": {"system": "Jurkat, SKOV-3 and MESO-1 cells", "test": "Cytotoxicity assay, statements for all tested cell lines together", "details": "Jurkat, SKOV-3 and MESO-1 cells, 72 h", "procedure,_shortened": "(§1)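 Incubate 4 h at 37 °C, 5% CO2. Add 2-fold compound dilutions, 0.5% DMSO. After 72 h, read CellTiter-Glo luminescence.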"}, "[2]": {"test": "Cytotoxicity assay (CellTiter-Glo, 72 h), MESO-1", "details": "human, MESO-1 malignant pleural mesothelioma cells, raw replicate data, read-out: MESO1 viability (%)", "procedure,_shortened": "as §1"}, "[3]": {"system": "malignant pleural mesothelioma MESO-1 cells", "test": "Cytotoxicity assay (CellTiter-Glo, 72 h), MESO-1", "details": "raw replicate data", "procedure,_shortened": "as §1"}}, "note": "Where “and” joins values, the source holds several entries; their conditions need not be identical. Equal entries are not always repeated.", "data": [{"compound": "CO[C@@H]1C[C@H](C[C@@H](C)[C@@H]2CC(=O)[C@H](C)/C=C(\\C)[C@@H](O)[C@@H](OC)C(=O)[C@H](C)C[C@H](C)/C=C/C=C/C=C(\\C)[C@H](O)C[C@@H]3CC[C@@H](C)[C@@](O)(O3)C(=O)C(=O)N3CCCC[C@H]3C(=O)O2)CC[C@H]1O", "note": "[Compound 17, (16R)-16-O-demethyl rapamycin]", "values": [{"measurement": "Effect on cell viability, in words", "setting": "[1]", "result": "slightly suppressed the cell viabilities"}, {"measurement": "viability at 72 h, 9.53674e-05 uM", "setting": "[2]; conc 9.53674e-5 uM", "result": 103, "unit": "%"}, {"measurement": "viability at 72 h, 0.000190735 uM", "setting": "[2]; conc 0.000190735 uM", "result": 89.1, "unit": "%"}, {"measurement": "viability at 72 h, 0.00038147 uM", "setting": "[2]; conc 0.00038147 uM", "result": 100, "unit": "%"}, {"measurement": "viability at 72 h, 0.000762939 uM", "setting": "[2]; conc 0.000762939 uM", "result": 97.1, "unit": "%"}, {"measurement": "viability at 72 h, 0.00152588 uM", "setting": "[2]; conc 0.00152588 uM", "result": 98.3, "unit": "%"}, {"measurement": "viability at 72 h, 0.00305176 uM", "setting": "[2]; conc 0.00305176 uM", "result": 92.9, "unit": "%"}, {"measurement": "viability at 72 h, 0.00610352 uM", "setting": "[2]; conc 0.00610352 uM", "result": 89.6, "unit": "%"}, {"measurement": "viability at 72 h, 0.012207 uM", "setting": "[2]; conc 0.012207 uM", "result": 83.5, "unit": "%"}, {"measurement": "viability at 72 h, 0.0244141 uM", "setting": "[2]; conc 0.0244141 uM", "result": 86.9, "unit": "%"}, {"measurement": "viability at 72 h, 0.0488281 uM", "setting": "[2]; conc 0.0488281 uM", "result": 85.1, "unit": "%"}, {"measurement": "viability at 72 h, 0.0976562 uM", "setting": "[2]; conc 0.0976562 uM", "result": 78.9, "unit": "%"}, {"measurement": "viability at 72 h, 0.195312 uM", "setting": "[2]; conc 0.195312 uM", "result": 71.5, "unit": "%"}, {"measurement": "viability at 72 h, 0.390625 uM", "setting": "[2]; conc 0.390625 uM", "result": 79.6, "unit": "%"}, {"measurement": "viability at 72 h, 0.78125 uM", "setting": "[2]; conc 0.78125 uM", "result": 73.1, "unit": "%"}, {"measurement": "viability at 72 h, 1.5625 uM", "setting": "[2]; conc 1.5625 uM", "result": 71.7, "unit": "%"}, {"measurement": "viability at 72 h, 3.125 uM", "setting": "[2]; conc 3.125 uM", "result": 72.9, "unit": "%"}, {"measurement": "viability at 72 h, 6.25 uM", "setting": "[2]; conc 6.25 uM", "result": 74.2, "unit": "%"}, {"measurement": "viability at 72 h, 12.5 uM", "setting": "[2]; conc 12.5 uM", "result": 72.1, "unit": "%"}, {"measurement": "viability at 72 h, 25 uM", "setting": "[2]; conc 25 uM", "result": 67.4, "unit": "%"}, {"measurement": "viability at 72 h, 50 uM", "setting": "[2]; conc 50 uM", "result": 61.5, "unit": "%"}, {"measurement": "MESO1 viability (%)", "setting": "[3]; conc 9.53674e-5 uM", "result": "101.2% and 92.1%"}, {"measurement": "MESO1 viability (%)", "setting": "[3]; conc 0.000190735 uM", "result": "91.6% and 98.7%"}, {"measurement": "MESO1 viability (%)", "setting": "[3]; conc 0.00038147 uM", "result": "104.8% and 96.5%"}, {"measurement": "MESO1 viability (%)", "setting": "[3]; conc 0.000762939 uM", "result": "94.3% and 95.5%"}, {"measurement": "MESO1 viability (%)", "setting": "[3]; conc 0.00152588 uM", "result": "93.6% and 93.5%"}, {"measurement": "MESO1 viability (%)", "setting": "[3]; conc 0.00305176 uM", "result": "90.4% and 91.1%"}, {"measurement": "MESO1 viability (%)", "setting": "[3]; conc 0.00610352 uM", "result": "88.7% and 90.9%"}, {"measurement": "MESO1 viability (%)", "setting": "[3]; conc 0.012207 uM", "result": 91.2, "unit": "%"}, {"measurement": "MESO1 viability (%)", "setting": "[3]; conc 0.0244141 uM", "result": "80.2% and 88.3%"}, {"measurement": "MESO1 viability (%)", "setting": "[3]; conc 0.0488281 uM", "result": "80.6% and 75.2%"}, {"measurement": "MESO1 viability (%)", "setting": "[3]; conc 0.0976562 uM", "result": "77.6% and 79.5%"}, {"measurement": "MESO1 viability (%)", "setting": "[3]; conc 0.195312 uM", "result": "74.7% and 70.5%"}, {"measurement": "MESO1 viability (%)", "setting": "[3]; conc 0.390625 uM", "result": "76.8% and 75.4%"}, {"measurement": "MESO1 viability (%)", "setting": "[3]; conc 0.78125 uM", "result": "70.1% and 72.2%"}, {"measurement": "MESO1 viability (%)", "setting": "[3]; conc 1.5625 uM", "result": "74.3% and 71.9%"}, {"measurement": "MESO1 viability (%)", "setting": "[3]; conc 3.125 uM", "result": "66.5% and 67.5%"}, {"measurement": "MESO1 viability (%)", "setting": "[3]; conc 6.25 uM", "result": "73.9% and 73.5%"}, {"measurement": "MESO1 viability (%)", "setting": "[3]; conc 12.5 uM", "result": "65.3% and 66.5%"}, {"measurement": "MESO1 viability (%)", "setting": "[3]; conc 25 uM", "result": "64.8% and 66.6%"}, {"measurement": "MESO1 viability (%)", "setting": "[3]; conc 50 uM", "result": "62.7% and 65.8%"}]}]}
